How the values were obtained:
[1] = system: southern chinch bugs (pyrethroid-resistant chinch bugs); assay: Florida Study (a): St. Augustine grass lawns, chinch bug counts; type: in vivo, Blissus hirsutus; conditions: for number of southern chinch bugs per ft^2 (per 930 cm^2): bifenthrin 0.2 lb/A, imidacloprid 0.25 lb/A where applied
Description: (§1) The following tests were performed to show the efficacy of combinations containing imidacloprid and bifenthrin against pyrethroid-resistant chinch bugs (Blissus hirsutus).
St. Augustine grass lawns, were treated in the summer of 2005 with either bifenthrin at 0.2 lb/A (220 g/ha) or with one of two combination products containing imidacloprid at 0.25 lb/A (280 g/ha) plus bifenthrin at 0.2 lb/A (220 g/ha). At the time of application, populations of chinch bugs were very low. The grass was irrigated and mowed according to local agronomic practices. Because of poor efficacy, imidacloprid is not used commercially for this application and thus was not tested alone in this study.
The numbers of chinch bugs in the lawns were counted at 40 days after application (DAT). After this time period, lawns treated with the combination products containing imidacloprid and bifenthrin had no chinch bugs.

[2] = system: chinch bugs collected from Florida Study (b) lawns; assay: University of Florida laboratory bioassay of bifenthrin susceptibility; type: in vivo, Blissus hirsutus; conditions: bugs sampled from the treated lawns
Description: (§2) Seven St. Augustine grass lawns were treated several times in the summer of 2005 with bifenthrin at 0.2 lb/A (220 g/ha), the highest registered dose of the most widely-used product used for control of southern chinch bugs in Florida.

[3] = system: pyrethroid-resistant chinch bugs (southern chinch bugs); assay: Florida Study (b): seven St. Augustine grass lawns, chinch bug counts; type: in vivo, Blissus hirsutus
Description: as §1, §2
In October of 2005 the lawns were sampled, and the average population of chinch bugs in each lawn was 571 bugs/ft^2 (i.e., 571 bugs per about 930 cm^2), an exceedingly heavy population. After this sampling was done, the seven lawns were treated with a soluble concentrate formulation of a product containing imidacloprid plus bifenthrin at 0.25 lb/A plus 0.2 lb/A (280 g/ha plus 220 g/ha). Six days after treatment, the lawns were again sampled, at which time an average of 6 chinch bugs/ft^2 (i.e., 6 bugs per about 930 cm^2) was observed.

[4] = system: Japanese beetle (Popillia japonica); assay: Japanese beetle choice test on treated and untreated turfgrass cores; type: in vivo; conditions: 4 days after infestation
Description: The following tests were performed to show the efficacy of combinations containing imidacloprid and bifenthrin against Japanese beetle eggs (Popillia japonica).
Turfgrass cores (6.4 cm in diameter, 7 cm deep) were set into tight-fitting paper cups. Four cores were arranged in an ABAB layout in cylindrical plastic cages (60 cm in diameter, 50 cm high) cages with lids that prevented any insects inside from escaping. The cages were sufficiently large to allow adult Japanese beetles to fly and/or crawl unimpeded from one core to another, thereby providing an experimental design that was an accurate measure of which type of turf (untreated or insecticide treated) the adult beetles preferred.
Tests were carried out using the following compositions compared to untreated controls: • Composition (1): Imidacloprid at 0.25 lb/A (about 280 g/ha) plus bifenthrin at 0.2 lb/A (about 220 g/ha) • Composition (2): Imidacloprid at 0.3 lb/A (about 340 g/ha)
Eight replicates of each paired comparison were tested. Gravid adult female Japanese beetles were collected from the field and eight females were placed in each cage. Tests were carried out at 25° C. and with 14 h photophase. One day after infestation, a piece of apple was added to the cage as a food/water source.
At 4 days after infestation, the numbers of adult beetles found in treated and untreated cores were counted. […]

| Structure (SMILES) | number of southern chinch bugs per ft^2 (per 930 cm^2) ([1]; 0 DAT) | number of southern chinch bugs per ft^2 (per 930 cm^2) ([1]; 40 DAT) | chinch bugs in the lawns (in words) ([1]; 40 days after application (DAT)) | control of southern chinch bugs (in words) ([1]; overall conclusion from the table data) | times less susceptible than a normal pyrethroid-susceptible population [2] [times] | average population of chinch bugs in each lawn ([3]; October 2005, after several bifenthrin treatments at 0.2 lb/A, before the combination treatment) [bugs/ft^2] | control of southern chinch bugs (in words) ([3]; lawns treated several times in summer 2005 at 0.2 lb/A (220 g/ha)) | number of adult beetles found in treated cores ([4]; choice against untreated cores, imidacloprid 0.25 lb/A plus bifenthrin 0.2 lb/A, or imidacloprid alone 0.3 lb/A, 25° C.) [beetles] | beetle preference between treated and untreated turf (in words) ([4]; paired choice comparison) |
| --- | --- | --- | --- | --- | --- | --- | --- | --- | --- |
| Cc1c(COC(=O)[C@@H]2[C@H](/C=C(\Cl)C(F)(F)F)C2(C)C)cccc1-c1ccccc1 (racemic) [Bifenthrin, 2-methylbiphenyl-3-ylmethyl (Z)-(1RS,3RS)-3-(2-chloro-3,3,3-trifluoroprop-1-enyl)-2,2-dimethylcyclopropane-carboxylate] | 0 per ft^2 (per 930 cm^2) | 250 per ft^2 (per 930 cm^2) | economically damaging levels | not effective | 47 | 571 | exceedingly poor | – | – |
| O=[N+]([O-])NC1=NCCN1Cc1ccc(Cl)nc1 [Imidacloprid] | – | – | – | – | – | – | – | 3.8 | the beetles show preference |

Reference: US8202527B2, “Method of combating turf pests with a combination of imidacloprid and bifenthrin” (priority 2005, dated 2012)
